{"source": "patent US20250170114A1", "about": "“METHODS OF TREATMENT USING T-TYPE CALCIUM CHANNEL MODULATORS” (Praxis Precision Medicines, Inc., priority 2022, published 2025)", "key": {"participants with ET [1]": {"test_system": "participants with ET", "test": "Phase 2 trial: Patient Global Impression of Change (PGI-C)", "type": "in vivo, human", "conditions": "Part B RWD (RWAS), Day 70, study drug group, n = 5, vs randomization baseline", "text": "The Patient Global Impression of Change (PGI-C) assesses the participant's improvement (or worsening). The participant is required to assess their condition relative to Baseline (Day 0) on a 7-point scale from 1 (very much improved) to 7 (very much worse). The assessment is made independent of whether the participant believes the improvement/worsening was drug-related or not. In some embodiments, the method results in a reduction in PGI-C score compared to baseline. The Columbia-Suicide Severity Rating Scale (C-SSRS) assesses suicidal ideation and behavior in participants during participation in a clinical trial of centrally-acting drugs. The C-SSRS is composed of 5 questions addressing suicidal behavior and 5 questions addressing suicidal ideation, with sub-questions assessing the severity. The tool should be administered via interview with the participant (by a trained operator/interviewer) and takes about 5 to 10 minutes to complete. In some embodiments, the method results in a reduction in suicidal ideation and/or behavior as compared to suicidal ideation and/or behavior prior to treatment. In other embodiments, the method results in no change in the C-SSRS score of a patient as compared to the C-SSRS score prior to treatment. Key safety measures included clinical laboratory evaluations, 12-lead ECG, C-SSRS, and vital signs. Key efficacy assessments included the TETRAS Performance subscale, TETRAS Upper Limb using accelerometry, CGI, and PGI-C. Blood samples were obtained for the determination of study drug plasma concentrations using a validated bioanalytical method and may also be used for method development and/or metabolite characterization. In both phases, key safety measures included clinical laboratory evaluations, 12-lead ECG, C-SSRS, and vital signs. Key efficacy assessments included the TETRAS Performance subscale, TETRAS Upper Limb using accelerometry, CGI, PGI-C, TETRAS ADL Subscale, QUEST, BDI-II, and BAI. Blood samples were obtained for the determination of study drug and metabolite plasma concentrations."}, "[2]": {"test": "Phase 2 trial: study drug plasma concentrations", "type": "in vivo, human", "text": "Key safety measures included clinical laboratory evaluations, 12-lead ECG, C-SSRS, and vital signs. Key efficacy assessments included the TETRAS Performance subscale, TETRAS Upper Limb using accelerometry, CGI, and PGI-C. Blood samples were obtained for the determination of study drug plasma concentrations using a validated bioanalytical method and may also be used for method development and/or metabolite characterization. In both phases, key safety measures included clinical laboratory evaluations, 12-lead ECG, C-SSRS, and vital signs. Key efficacy assessments included the TETRAS Performance subscale, TETRAS Upper Limb using accelerometry, CGI, PGI-C, TETRAS ADL Subscale, QUEST, BDI-II, and BAI. Blood samples were obtained for the determination of study drug and metabolite plasma concentrations."}, "[3]": {"test": "Plasma and brain tissue concentrations in rats after harmaline testing", "type": "in vivo, rat", "conditions": "collected immediately after harmaline testing", "description": "Plasma and brain tissue sample collection (at 90 min post dosing of study compound) was evaluated in […]. N=15 in each group. Plasma and brain tissue samples were collected immediately after harmaline testing. Plasma sample number: 5×15=75. Brain tissue sample number: 5×15=75."}, "participants with ET [4]": {"test_system": "participants with ET", "test": "Phase 2 trial Part B: Quality of Life in Essential Tremor Questionnaire (QUEST)", "type": "in vivo, human", "conditions": "pre-dose baseline to Day 56, participants receiving study drug", "text": "In both phases, key safety measures included clinical laboratory evaluations, 12-lead ECG, C-SSRS, and vital signs. Key efficacy assessments included the TETRAS Performance subscale, TETRAS Upper Limb using accelerometry, CGI, PGI-C, TETRAS ADL Subscale, QUEST, BDI-II, and BAI. Blood samples were obtained for the determination of study drug and metabolite plasma concentrations."}}}
{"smiles": "CC(C)(C)NC(=O)CN1CCC(CNC(=O)c2cc(F)cc(Cl)c2)CC1.Cl", "note": "[Study drug]", "values": [{"measurement": "PGI-C Score 3 minimally improved", "setting": "participants with ET [1]", "result": "1 (20.0) n (%)"}, {"measurement": "PGI-C Score 4 no change", "setting": "participants with ET [1]", "result": "3 (60.0) n (%)"}, {"measurement": "PGI-C Score 6 much worse", "setting": "participants with ET [1]", "result": "1 (20.0) n (%)"}, {"measurement": "study drug plasma concentrations", "setting": "[2]; 1-hour post-dose, all participants", "result": "Measurable"}, {"measurement": "study drug plasma concentrations", "setting": "[2]; after 56 days of daily dosing and a 14-day washout period", "result": "undetectable"}, {"measurement": "concentration at 42 day", "setting": "[2]; human, plasma, oral, 120 mg, Part B, Day 42, steady-state", "result": 379, "unit": "ng/mL"}, {"measurement": "concentration at 56 day", "setting": "[2]; human, plasma, oral, Part B, Day 56", "result": 344, "unit": "ng/mL"}, {"measurement": "plasma and brain concentrations", "setting": "[3]", "result": "consistent with those measured in previous studies"}, {"measurement": "Quality of life measured by QUEST", "setting": "participants with ET [4]", "result": "improved"}]}
